Patent publication US20120245154A1, “SUBSTITUTED AMINOTHIAZINE DERIVATIVE” (SHIONOGI & CO., LTD., priority 2009, published 2012)

How the values were obtained:
[1] = Brain distribution studies; format: in vivo; conditions: brain/plasma, iv; rat, intravenously 0.5 mg/mL/kg, 30 minutes later; read-out: brain Kp value (area ratio brain/plasma)
Protocol: Compound of the present invention was intravenously administered to a rat at 0.5 mg/mL/kg dosage. […] The brain was enucleated and 20-25% of homogenate thereof was prepared with distilled water. The obtained blood was used as plasma after centrifuging. To the brain sample was added the control plasma at 1:1. To the plasma samples was added the control brains at 1:1. Each sample was measured using LC/MS/MS. The obtained area ratio (a brain/plasma) was used for the brain Kp value.

hERG channel (IKr) = biological target: T1, hERG channel (IKr) (Homo sapiens, UniProt Q12809); experiment: hERG test; format: cell-based; conditions: HEK293 cells expressing hERG channel, pH 7.4, whole cell patch clamp, concentration not given, read-out: % inhibition relative to the tail peak current (IKr)
T1 construct: expressed in transfected cells; host or cells: HEK293
Excerpt: For the purpose of assessing risk of an electrocardiogram QT interval prolongation, effects on delayed rectifier K+ current (IKr), which plays an important role in the ventricular repolarization process, was studied using HEK293 cells expressing human ether-a-go-go related gene (hERG) channel.
After a cell was retained at a membrane potential of −80 mV by whole cell patch clamp method using an automated patch clamp system (PatchXpress 7000A, Axon Instruments Inc.), IKr induced by depolarization pulse stimulation at +50 mV for 2 seconds and, further, repolarization pulse stimulation at −50 mV for 2 seconds was recorded. […] From the recording IKr, an absolute value of the tail peak current was measured based on the current value at the resting membrane potential using an analysis software (DataXpress vet.1, Molecular Devices Corporation). Further, the % inhibition relative to the tail peak current before application of the test substance was calculated, and compared with the vehicle-applied group (0.1% dimethyl sulfoxide solution) to assess influence of the test substance on IKr.

T1 sequence (Q12809 whole entry): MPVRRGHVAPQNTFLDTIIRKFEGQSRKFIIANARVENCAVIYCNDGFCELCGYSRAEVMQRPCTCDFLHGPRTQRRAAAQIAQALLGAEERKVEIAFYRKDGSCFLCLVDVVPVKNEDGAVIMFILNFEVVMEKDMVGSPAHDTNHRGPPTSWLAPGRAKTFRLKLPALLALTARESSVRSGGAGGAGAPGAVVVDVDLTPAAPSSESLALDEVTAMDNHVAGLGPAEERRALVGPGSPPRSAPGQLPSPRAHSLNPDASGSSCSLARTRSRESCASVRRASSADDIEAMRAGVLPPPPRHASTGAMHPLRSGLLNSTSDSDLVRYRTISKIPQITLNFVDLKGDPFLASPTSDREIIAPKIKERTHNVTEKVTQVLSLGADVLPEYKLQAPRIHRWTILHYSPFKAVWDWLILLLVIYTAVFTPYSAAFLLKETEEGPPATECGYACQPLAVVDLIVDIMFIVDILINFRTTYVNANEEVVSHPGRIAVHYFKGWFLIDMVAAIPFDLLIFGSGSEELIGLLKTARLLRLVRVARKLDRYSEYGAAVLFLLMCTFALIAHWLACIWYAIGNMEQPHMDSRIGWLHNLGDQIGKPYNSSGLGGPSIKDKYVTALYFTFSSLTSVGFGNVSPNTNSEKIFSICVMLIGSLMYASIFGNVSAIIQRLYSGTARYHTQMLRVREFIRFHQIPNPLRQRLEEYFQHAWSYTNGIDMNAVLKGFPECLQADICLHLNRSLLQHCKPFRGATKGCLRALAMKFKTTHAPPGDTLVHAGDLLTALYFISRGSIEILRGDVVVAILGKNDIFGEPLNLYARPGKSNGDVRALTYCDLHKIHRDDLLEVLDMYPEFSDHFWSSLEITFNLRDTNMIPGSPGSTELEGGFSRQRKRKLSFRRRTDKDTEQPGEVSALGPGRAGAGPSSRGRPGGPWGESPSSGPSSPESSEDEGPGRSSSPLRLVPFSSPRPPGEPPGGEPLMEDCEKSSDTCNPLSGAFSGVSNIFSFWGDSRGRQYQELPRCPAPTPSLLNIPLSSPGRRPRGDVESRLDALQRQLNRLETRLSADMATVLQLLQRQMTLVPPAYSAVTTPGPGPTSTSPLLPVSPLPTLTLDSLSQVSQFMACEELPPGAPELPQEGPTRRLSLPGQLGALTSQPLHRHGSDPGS

Structure (SMILES) | Kp at 0.5 h [1] | inhibition at 10 min (hERG channel (IKr))
CC(C)C1=C[C@@](C)(c2cc(NC(=O)c3ccc(C#N)cn3)ccc2F)N=C(N)S1 [Compound I-54] | 2.5 | –
Cc1cnc(C(=O)Nc2ccc(F)c([C@]3(C)C=C(C(F)F)SC(N)=N3)c2)cn1 [Compound I-14] | – | 3.8%
